Where “and” joins values, the source holds several entries; their conditions need not be identical. Identical values can stand only once.

For assay [1], the target named is T1, hTRPV1 (Homo sapiens, UniProt Q8NER1).
T1 construct: expressed in transfected cells; host or cells: HEK293 (transient, Lipofectamine 3000)
The experiment in a line: Whole-cell patch-clamp of capsaicin-evoked currents in HEK293 cells expressing hTRPV1. The following applies: −60 mV. In kind it is cell-based. The procedure:
(§1) To evaluate receptor selectivity, we investigated the activity of compound 23 on recombinant hTRPV1 and hTRPA1 channels recombinantly expressed in HEK293 cells (Fig. 4). We choose these thermosensory channels because of their structural similarity and expression in peripheral nociceptive terminals. In addition, some ligand cross‐interaction within these channels has been reported.
Recording through patch‐clamp techniques was performed on HEK293 cells cultured in DMEM GlutaMax with 10% FBS and 1% P/S. The cell lines were authenticated following the standardization of STR Profiling guidelines (ANSI/ATCC ASN‐0002‐2022) using the CLA Identifier Plus PCR Amplification Kit (Thermo Fisher‐A44660) to analyze 16 highly variant human STRs. The cells were confirmed to be mycoplasma‐free. These cells were transiently transfected with plasmids encoding hTRPV1, hTRPM8, or hTRPA1 using Lipofectamine 3000. Transfected cells were seeded on 12 mm Ø glass coverslips treated with poly‐L‐lysine solution and recorded 2 days post‐transfection. […] Leak currents were not subtracted, and conductance was calculated using the equation: G = I/(V − V r), where I is the measured ionic current, V is the applied voltage, and V r is the reversal potential that for the ionic conditions used was set to 0 mV. […]
For orientation: The patch-clamp technique gives a direct electrical read-out from membranes.

The target in assay [2] is T2, neuronal TRPM8 channels (mTRPM8) in dorsal root ganglion neurons (Mus musculus, UniProt Q8R4D5).
T2 construct: neuronal TRPM8 channels expressed in murine primary nociceptor cultures; endogenous in cells; host or cells: primary cultures of mouse dorsal root ganglion neurons
T2 sequence (Q8R4D5 whole entry): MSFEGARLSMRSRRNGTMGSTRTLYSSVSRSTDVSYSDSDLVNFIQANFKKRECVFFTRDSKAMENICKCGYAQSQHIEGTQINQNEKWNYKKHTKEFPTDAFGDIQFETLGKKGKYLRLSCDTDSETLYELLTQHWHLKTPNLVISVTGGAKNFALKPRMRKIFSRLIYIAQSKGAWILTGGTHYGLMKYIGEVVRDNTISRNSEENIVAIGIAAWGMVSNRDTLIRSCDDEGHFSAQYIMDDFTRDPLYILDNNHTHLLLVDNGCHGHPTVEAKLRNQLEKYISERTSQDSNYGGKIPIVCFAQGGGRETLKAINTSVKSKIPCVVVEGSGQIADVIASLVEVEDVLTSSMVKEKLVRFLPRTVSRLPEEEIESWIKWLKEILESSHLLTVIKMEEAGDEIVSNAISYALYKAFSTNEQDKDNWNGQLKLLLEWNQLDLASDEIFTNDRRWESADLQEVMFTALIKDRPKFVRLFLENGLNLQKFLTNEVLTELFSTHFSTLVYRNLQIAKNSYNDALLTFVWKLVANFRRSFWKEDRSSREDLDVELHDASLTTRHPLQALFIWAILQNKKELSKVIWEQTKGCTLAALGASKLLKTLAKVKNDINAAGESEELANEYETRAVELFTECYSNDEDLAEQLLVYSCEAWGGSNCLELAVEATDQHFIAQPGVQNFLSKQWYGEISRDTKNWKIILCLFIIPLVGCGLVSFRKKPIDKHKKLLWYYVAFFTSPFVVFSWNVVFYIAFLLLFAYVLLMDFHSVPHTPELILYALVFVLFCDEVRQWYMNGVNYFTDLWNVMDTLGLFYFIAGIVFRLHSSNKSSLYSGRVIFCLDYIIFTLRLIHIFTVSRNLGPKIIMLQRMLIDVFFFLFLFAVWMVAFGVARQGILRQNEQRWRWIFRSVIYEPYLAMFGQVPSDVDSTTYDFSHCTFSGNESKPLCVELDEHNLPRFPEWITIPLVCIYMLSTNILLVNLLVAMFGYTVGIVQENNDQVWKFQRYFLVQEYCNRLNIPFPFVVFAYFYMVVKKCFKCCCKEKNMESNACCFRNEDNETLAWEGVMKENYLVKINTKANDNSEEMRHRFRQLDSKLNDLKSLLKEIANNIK
The experiment in a line: Patch-clamp of WS-12-evoked currents in primary DRG nociceptor cultures. In kind it is cell-based, murine. The settings on record: WS-12 evoked current, −60 mV, N = 3, n = 8; read-out: IC50 of mTRPM8 current blockade in DRG neurons. The source says:
To examine the in vivo activity of compound 23, we first investigated its inhibitory potency on neuronal TRPM8 channels expressed in murine primary nociceptor cultures by patch‐clamp. […] Alternatively, it could also be due to distinct gating mechanisms of both orthologs or the influence of the neuronal environment.
Primary cultures of neonatal dorsal root ganglia were used for multielectrode array (MEA) and patch‐clamp experiments following established methodologies previously described. Neonatal dorsal root ganglia (DRGs) were obtained from Wistar rats (3–5 days old) and were isolated and digested with 0.25% (w/v) collagenase (type IA) in DMEM GlutaMax with 1% (v/v) penicillin/streptomycin (P/S) solution for 1 h at 37 °C in a 5% CO2 Thermo Scientific incubator. Following digestion, DRGs were mechanically dissociated and passed through a 100 μm cell strainer to obtain single‐cell suspensions. Suspensions were washed with DMEM GlutaMax with 10% (v/v) fetal bovine serum (FBS) and 1% (v/v) penicillin/streptomycin (P/S). Cells were then seeded in microelectrode array chambers coated with poly‐L‐lysine (8.3 μg·mL^−1) and laminin (5 μg·mL^−1). After 1 h, the medium was replaced with DMEM GlutaMax, 10% (v/v) FBS, and 1% (v/v) P/S, supplemented with mouse 2.5S NGF 50 ng·mL^−1 and 1.25 μg·mL^−1 cytosine arabinoside. […]

Assay [3] addresses T3, hTRPA1 (Homo sapiens, UniProt O75762).
T3 construct: expressed in transfected cells; host or cells: HEK293 (transient, Lipofectamine 3000)
The experiment in a line: Whole-cell patch-clamp of AITC-evoked currents in HEK293 cells expressing hTRPA1. The settings on record: −60 mV. In kind it is cell-based. As for the experimental part: as §1
Recording through patch‐clamp techniques was performed on HEK293 cells cultured in DMEM GlutaMax with 10% FBS and 1% P/S. The cell lines were authenticated following the standardization of STR Profiling guidelines (ANSI/ATCC ASN‐0002‐2022) using the CLA Identifier Plus PCR Amplification Kit (Thermo Fisher‐A44660) to analyze 16 highly variant human STRs. The cells were confirmed to be mycoplasma‐free. These cells were transiently transfected with plasmids encoding hTRPV1, hTRPM8, or hTRPA1 using Lipofectamine 3000. Transfected cells were seeded on 12 mm Ø glass coverslips treated with poly‐L‐lysine solution and recorded 2 days post‐transfection. The intracellular pipette solution included (in mM) 150 NaCl, 3 MgCl2, 5 EGTA, and 10 HEPES, pH 7.2 with CsOH, while the extracellular solution contained (in mM) 150 NaCl, 6 CsCl, 1 MgCl2, 1.5 CaCl2, 10 glucose, and 10 HEPES, pH 7.4 with NaOH. An EPC‐10 amplifier with Patchmaster software was used in whole‐cell experiments. Patch pipettes, created from thin‐wall borosilicate capillary glass tubing, were pulled with a Micropipette puller to a final resistance of 2–8 MΩ when filled with the internal solution. Recordings were acquired at 10 kHz and low‐pass filtered at 3 kHz, discarding recordings with leak currents > 200pA or series resistance > 20 MΩ. In voltage‐clamp recordings, cells were held at a constant potential, and the application of modulators was carried out using a gravity‐driven perfusion system. […] Leak currents were not subtracted, and conductance was calculated using the equation: G = I/(V − V r), where I is the measured ionic current, V is the applied voltage, and V r is the reversal potential that for the ionic conditions used was set to 0 mV. […]

T1 sequence (Q8NER1 whole entry): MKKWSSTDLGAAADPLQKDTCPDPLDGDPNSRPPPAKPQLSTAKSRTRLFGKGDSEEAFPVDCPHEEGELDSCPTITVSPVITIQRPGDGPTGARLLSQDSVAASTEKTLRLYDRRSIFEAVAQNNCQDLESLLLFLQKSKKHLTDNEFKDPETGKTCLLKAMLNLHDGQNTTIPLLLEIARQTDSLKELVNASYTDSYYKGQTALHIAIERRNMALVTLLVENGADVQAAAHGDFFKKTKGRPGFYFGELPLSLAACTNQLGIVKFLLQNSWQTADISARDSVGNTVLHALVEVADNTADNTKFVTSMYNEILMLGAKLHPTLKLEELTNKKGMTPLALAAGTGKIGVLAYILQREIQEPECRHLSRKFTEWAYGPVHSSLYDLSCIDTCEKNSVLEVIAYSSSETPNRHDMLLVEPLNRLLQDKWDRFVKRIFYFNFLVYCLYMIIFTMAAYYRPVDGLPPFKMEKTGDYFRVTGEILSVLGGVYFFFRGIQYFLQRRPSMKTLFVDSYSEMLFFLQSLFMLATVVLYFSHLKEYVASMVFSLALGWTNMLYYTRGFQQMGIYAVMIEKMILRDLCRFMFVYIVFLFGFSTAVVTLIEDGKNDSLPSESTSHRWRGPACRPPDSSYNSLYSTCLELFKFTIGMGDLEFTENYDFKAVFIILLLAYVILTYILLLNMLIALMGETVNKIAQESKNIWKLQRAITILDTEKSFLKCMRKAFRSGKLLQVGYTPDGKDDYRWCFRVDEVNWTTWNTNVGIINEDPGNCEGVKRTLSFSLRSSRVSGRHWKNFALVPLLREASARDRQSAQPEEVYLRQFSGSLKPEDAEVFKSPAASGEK
T3 sequence (O75762 whole entry): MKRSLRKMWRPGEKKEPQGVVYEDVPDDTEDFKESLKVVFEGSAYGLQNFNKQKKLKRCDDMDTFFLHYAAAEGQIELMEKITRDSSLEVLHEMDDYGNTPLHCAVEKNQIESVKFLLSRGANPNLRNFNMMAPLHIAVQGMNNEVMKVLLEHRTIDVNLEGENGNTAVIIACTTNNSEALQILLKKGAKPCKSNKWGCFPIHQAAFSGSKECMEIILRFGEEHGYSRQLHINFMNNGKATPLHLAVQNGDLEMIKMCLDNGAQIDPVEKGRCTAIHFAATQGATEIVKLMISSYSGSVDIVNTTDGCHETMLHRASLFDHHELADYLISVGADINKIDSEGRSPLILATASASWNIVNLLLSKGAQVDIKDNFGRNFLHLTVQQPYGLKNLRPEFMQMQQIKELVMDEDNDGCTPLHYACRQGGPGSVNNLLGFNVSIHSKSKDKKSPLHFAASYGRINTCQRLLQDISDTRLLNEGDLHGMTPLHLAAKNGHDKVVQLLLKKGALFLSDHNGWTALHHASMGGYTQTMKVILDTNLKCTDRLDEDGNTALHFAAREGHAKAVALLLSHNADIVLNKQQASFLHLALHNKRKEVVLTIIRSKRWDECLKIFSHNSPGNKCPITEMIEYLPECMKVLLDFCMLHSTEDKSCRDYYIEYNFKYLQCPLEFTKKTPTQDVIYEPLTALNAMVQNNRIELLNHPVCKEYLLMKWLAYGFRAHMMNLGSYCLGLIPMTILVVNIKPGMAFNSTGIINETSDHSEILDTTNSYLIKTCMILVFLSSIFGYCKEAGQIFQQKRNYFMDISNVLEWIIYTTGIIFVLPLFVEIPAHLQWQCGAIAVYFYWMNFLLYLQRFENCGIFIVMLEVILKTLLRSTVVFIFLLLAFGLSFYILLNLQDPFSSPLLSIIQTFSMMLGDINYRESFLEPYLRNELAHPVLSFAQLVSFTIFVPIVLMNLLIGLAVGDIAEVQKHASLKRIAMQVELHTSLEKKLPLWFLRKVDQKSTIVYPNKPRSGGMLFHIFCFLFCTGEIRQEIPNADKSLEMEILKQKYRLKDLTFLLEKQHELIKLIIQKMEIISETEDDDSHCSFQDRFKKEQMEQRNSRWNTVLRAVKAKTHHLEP

As usually defined, the IC50 is the concentration that gives 50% inhibition. As for `O=C(COC(=O)c1ccccc1-c1ccccc1)NC12CC3CC(CC(C3)C1)C2` [Compound 23, 2‐((3S,5S,7S)‐adamantan‐1‐ylamino)‐2‐oxoethyl [1,1′‐biphenyl]‐2‐carboxylate], the “block of hTRPV1‐channel activity” value in assay [1] (1 μM compound, 0.5 μM capsaicin) is on record as “≈ 50%”. Moreover, the IC50 in assay [1] (capsaicin-evoked current, n = 6, read-out: IC50 of hTRPV1 current blockade) is 1100 nM and 1000 nM; in assay [2], 430 ± 750 nM; in assay [3] (AITC-evoked current, n = 8, read-out: IC50 of hTRPA1 current blockade), 3.04 ± 2.01 µM. The “block of hTRPA1‐evoked (AITC) current” value in assay [3] (5 μM compound, 60 μM AITC) is reported as “≈ 60%”.

The values are drawn from publication PMC12220852, “An adamantane‐based ligand as a novel chemical tool for thermosensory TRPM8 channel therapeutic modulation” (The Febs Journal, 2025).
